Data reported in patent US20040115284A1, “Use of gamma-GT inhibitors for the treatment of degenerative diseases” (priority 2001, published 2004).
Marks after values point to notes of the source that are not given here.

Experiments:
Glutathione Peroxidase = assay: Glutathione peroxidase activity in Mpv17 −/− cells (LUSVX) grown in presence of MnTBAP or acivicin; assay type: cell-based, mouse
Excerpt: (§1) Kidneys from background mice (CFW×Balb/c) and transgenic homozygous Mpv17−/− mice (H. Weiher, T. Noda, D. A. Gray, A. H. Sharpe and R. Jaenisch (1990), Cell, 62, pp. 425434) were obtained at an age of 7 to 9 months and frozen in liquid nitrogen. LUSVX cells (SV40 immortalised fibroblasts from the lungs of Mpv17−/− mice), and NIX1 5 cells (Mpv+/+ cells derived from LUSVX cells by stable transfection of an expression construct for the human Mpv17 cDNA) (A. Reuter. A. Nestl, R. M. Zwacka, J. Tuckermann, R. Waldherr, E. M. Wagner, M. Hoyhtya, A. M. Meyer zum Gottesberge, P. Angel and H. Weiher (1998), Molecular Biology of the Cell, 9, pp. 1675-1682) were grown in DMEM including 10% fetal calf serum (FCS) and 1 μg/ml puromycin (NIX15 cultures) at 6.5% CO2 Cells were harvested by trypsinisation and each 5×10^6 cells were washed in 1.5 ml of phosphate-buffered saline (PBS) before freezing the pellet in liquid nitrogen. Where indicated, Mn(III)tetrakis(4-benzoic acid)porphyrin (MnTBAP), final concentration 10 μM (Y. Noda, M. Kohno, A. Mori and L. Packer (1999), Methods in Enzymology, 299, pp. 28-34) (Calbiochem, Schwalbach, FRG), or the γ-GT inhibitor acivicin (AT-125), final concentration 50 μM (Sigma, Deisenhofen, FRG) were added in DMEM/10% FCS 18 h before harvesting the cells. Kidneys and cells were stored frozen at −80° C.
Cell fractions were prepared by differential centrifugation from 20% tissue and cell homogenates (w/v) in 10 mM potassium phosphate buffer, pH 7.0, containing 0.25 M sucrose, 150 mM potassium chloride, 1 mM EDTA, 2 mM dithiothreitol, and 50 μM phenylmethylsulfonyl fluoride. Enzyme activities were determined at 25° C.: catalase in the 25,000×g (10 min) pellet H. E. Aebi (1983), In Methods of Enzymatic Analysis (ed. H. U. Bergmeyer), Verlag Chemie, Weinheim, pp. 273-276); glutathione peroxidase (GPx) (R. A. Lawrence and R. F. Burk (1976), Biochemical Biophysical Research Communications, 71, pp. 952-958), GSSG reductase (Goldberg, D. M. S. R. F. (1983) In Methods of Enzymatic Analysis (ed. H. U. Bergmeyer) Verlag Chemie, Weinheim, pp. 258-265), glutathione transferase (GST) with 1-chloro-2,4-dinitrobenzene (CDNB) W. H. Habig, M. J. Pabst and W. B. Jakoby (1974), Journal Biological Chemistry, 249, pp. 7130-7139, and superoxide dismutase (SOD) (S. Marklund and G. Marklund (1974), European Journal of Biochemistry, 47, pp. 469-474) in the 105,000×g (45 min) supernatant; γ-glutamyl transpeptidase (γ-GT) ) (S. Marklund and G. Marklund (1974), European Journal of Biochemistry, 47, pp. 469-474) in the resuspended 105,000×g pellet containing 1% Triton X-100. Protein was measured by the method of Bradford using bovine serum albumin as standard (M. M. Bradford (1976), Analytical Biochemistry, 72, pp. 248-254).

[1] = molecular target: T1, γ-Glutamyl Transpeptidase (Mus musculus, UniProt Q60928); assay: γ-glutamyl transpeptidase activity in Mpv17 −/− cells (LUSVX) grown in presence of MnTBAP or acivicin; assay type: cell-based
T1 construct: in the resuspended 105,000×g pellet containing 1% Triton X-100; endogenous in cells; host or cells: LUSVX cells (SV40-immortalised lung fibroblasts from Mpv17−/− mice)
Excerpt: as §1
Cell fractions were prepared by differential centrifugation from 20% tissue and cell homogenates (w/v) in 10 mM potassium phosphate buffer, pH 7.0, containing 0.25 M sucrose, 150 mM potassium chloride, 1 mM EDTA, 2 mM dithiothreitol, and 50 μM phenylmethylsulfonyl fluoride. […] Protein was measured by the method of Bradford using bovine serum albumin as standard (M. M. Bradford (1976), Analytical Biochemistry, 72, pp. 248-254).

SOD mRNA = SOD mRNA levels by quantitative RT-PCR in Mpv17−/− cells; assay type: cell-based, mouse; conditions: Mpv17−/− cells with acivicin (γ-GT inhibition), FIG. 2B; β-actin reference
Excerpt: (§2) Kidneys from background mice (CFW×Balb/c) and transgenic homozygous Mpv17-/- mice ([…]. Noda, D. A. Gray, A. H. Sharpe and R. Jaenisch (1990), Cell, 62, pp. 425434) were obtained at an age of 7 to 9 months and frozen in liquid nitrogen. LUSVX cells (SV40 immortalised fibroblasts from the lungs of Mpv17-/- mice), and NIX1 5 cells (Mpv+/+ cells derived from LUSVX cells by stable transfection of an expression construct for the human Mpv17 cDNA) (A. Reuter. […]. Tuckermann, […]. Wagner, […]. Meyer zum Gottesberge, P. Angel and […] (1998), Molecular Biology of the Cell, 9, pp. 1675-1682) were grown in DMEM including 10% fetal calf serum (FCS) and 1 μg/ml puromycin (NIX15 cultures) at 6.5% CO2 Cells were harvested by trypsinisation and each 5×10^6 cells were washed in 1.5 ml of phosphate-buffered saline (PBS) before freezing the pellet in liquid nitrogen. […] Noda, M. Kohno, A. Mori and L. […] Kidneys and cells were stored frozen at -80° C. mRNA levels were also measured. In particular, levels of mRNA were determined by quantitative RT-PCR. […] Amplified mRNA was separated on 1.5% agarose gels in Tris borate buffer (F. M. Ausubel (1995) Short protocols in molecular biology: a compendium of methods from current protocols in molecular biology. Wiley Press, New York) visualized with vista green (Amersham, Freiburg, FRG) and quantified with a FLA2000 Imager (FUJI).

pGPx mRNA = pGPx mRNA level by quantitative RT-PCR in Mpv17−/− cells; assay type: cell-based, mouse; conditions: Mpv17−/− cells with acivicin (γ-GT inhibition), FIG. 2B; β-actin reference
Excerpt: as §2

γ-GT = molecular target: T2, γ-GT (Rattus norvegicus, UniProt P07314); conditions: short-term ischemia of rat kidney; Cutrin et al. 2000; cited from earlier work
T2 construct: oxidation damage during short-term ischemia of rat kidney

[2] = Mpv17−/− cells (LUSVX) grown in the presence of MnTBAP
[3] = LUSVX cells, MnTBAP 10 μM or acivicin 50 μM added 18 h before harvesting, means ± SEM (n = 3)

T1 sequence (Q60928 1-379 limits assumed): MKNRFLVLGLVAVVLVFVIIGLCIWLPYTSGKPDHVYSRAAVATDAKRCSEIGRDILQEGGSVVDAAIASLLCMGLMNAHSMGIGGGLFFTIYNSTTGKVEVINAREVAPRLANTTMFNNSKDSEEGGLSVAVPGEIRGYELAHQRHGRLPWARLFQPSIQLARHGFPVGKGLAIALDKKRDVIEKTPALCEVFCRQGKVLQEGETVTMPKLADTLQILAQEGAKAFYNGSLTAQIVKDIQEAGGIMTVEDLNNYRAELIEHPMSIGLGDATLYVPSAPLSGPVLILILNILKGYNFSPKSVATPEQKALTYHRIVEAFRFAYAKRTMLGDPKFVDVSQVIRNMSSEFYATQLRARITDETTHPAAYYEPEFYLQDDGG
T1 sequence (Q60928 380-568 limits assumed): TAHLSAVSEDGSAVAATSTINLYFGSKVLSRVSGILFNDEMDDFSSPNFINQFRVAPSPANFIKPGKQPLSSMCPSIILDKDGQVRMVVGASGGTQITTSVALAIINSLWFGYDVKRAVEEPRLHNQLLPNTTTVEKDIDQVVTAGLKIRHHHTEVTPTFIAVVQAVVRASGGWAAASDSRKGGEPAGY
T2 sequence (P07314 1-379 limits assumed): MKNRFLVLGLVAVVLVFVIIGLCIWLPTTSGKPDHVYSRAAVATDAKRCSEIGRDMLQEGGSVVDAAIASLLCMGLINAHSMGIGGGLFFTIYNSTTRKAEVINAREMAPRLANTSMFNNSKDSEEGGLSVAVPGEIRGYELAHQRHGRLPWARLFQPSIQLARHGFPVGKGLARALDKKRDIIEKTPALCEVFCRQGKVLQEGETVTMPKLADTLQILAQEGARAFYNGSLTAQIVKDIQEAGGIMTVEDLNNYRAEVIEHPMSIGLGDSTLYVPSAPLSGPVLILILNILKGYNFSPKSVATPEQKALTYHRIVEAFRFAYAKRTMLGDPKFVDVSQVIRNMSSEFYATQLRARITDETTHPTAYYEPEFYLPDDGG
T2 sequence (P07314 380-568 limits assumed): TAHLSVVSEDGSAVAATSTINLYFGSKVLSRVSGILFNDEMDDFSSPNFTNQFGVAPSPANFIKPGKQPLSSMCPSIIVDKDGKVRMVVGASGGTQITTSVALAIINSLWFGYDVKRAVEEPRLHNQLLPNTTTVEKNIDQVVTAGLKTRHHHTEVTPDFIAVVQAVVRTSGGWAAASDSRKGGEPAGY

SMILES	Glutathione Peroxidase activity, % of controls (Glutathione Peroxidase; LUSVX cells, MnTBAP 10 μM or acivicin 50 μM, 18 h, relative to untreated LUSVX)	change of GPx activity (in words) (Glutathione Peroxidase; [2])	γ-Glutamyl Transpeptidase activity [1, 3]	γ-Glutamyl Transpeptidase activity, % of controls ([1]; LUSVX cells, MnTBAP 10 μM, 18 h, relative to untreated LUSVX)	change of γ-GT activity (in words) [1, 2]	SOD mRNA levels (SOD mRNA)	Glutathione Peroxidase activity (Glutathione Peroxidase; [3])	increase of GPx activity (Glutathione Peroxidase; Mpv17−/− cells grown in the presence of acivicin)	activity at 50 µM (Glutathione Peroxidase; Mus musculus, LUSVX cells, MnTBAP 10 μM or acivicin 50 μM, 18 h, relative to untreated LUSVX, read-out: Glutathione Peroxidase activity, % of controls) [%]	pGPx mRNA level (pGPx mRNA)	oxidation damage caused by γ-GT upregulation (γ-GT)
O=C(O)c1ccc(-c2c3nc(c(-c4ccc(C(=O)O)cc4)c4ccc([n-]4)c(-c4ccc(C(=O)O)cc4)c4nc(c(-c5ccc(C(=O)O)cc5)c5ccc2[n-]5)C=C4)C=C3)cc1.[Mn+3] [MnTBAP, Mn(III)tetrakis(4-benzoic acid)porphyrin]	(104%)^a)	Neither γ-GT nor GPx activities were changed significantly	0.94 ± 0.03 nmol/min per mg of protein	(95%)	Neither γ-GT nor GPx activities were changed significantly						
N[C@H](C(=O)O)[C@@H]1CC(Cl)=NO1 [acivicin]						significant increase	53.5 ± 2.0 nmol/min per mg of protein	about 1.6 fold	162	significant increase	inhibitable
